In the CheMixHub ionic liquid set:
± gives the uncertainty stated by the source.

Assay: xn = mol fraction of the nth substance listed

CCCCCCCCCCCC[N+](C)(C)C.[Br-] + O
Settings	electrical conductivity [S/m]	viscosity [mPa·s]
293.15 K, 100 kPa, x1 = 5.406e-05	–	0.982 ± 0.027
293.15 K, 100 kPa, x1 = 0.0001081	–	0.984 ± 0.027
293.15 K, 100 kPa, x1 = 0.0001622	–	0.985 ± 0.027
293.15 K, 100 kPa, x1 = 0.0002162	–	0.987 ± 0.027
293.15 K, 100 kPa, x1 = 0.0002702	–	0.989 ± 0.027
293.15 K, 100 kPa, x1 = 0.0003242	–	0.991 ± 0.027
293.15 K, 100 kPa, x1 = 0.0003783	–	0.993 ± 0.027
293.15 K, 100 kPa, x1 = 0.0004323	–	0.995 ± 0.027
293.15 K, 100 kPa, x1 = 0.0004863	–	0.999 ± 0.027
293.15 K, 100 kPa, x1 = 0.0005403	–	1 ± 0.027
293.15 K, 101 kPa, x1 = 5.406e-05	–	0.985 ± 0.06
293.15 K, 101 kPa, x1 = 0.0001081	–	0.986 ± 0.06
293.15 K, 101 kPa, x1 = 0.0001622	–	0.988 ± 0.06
293.15 K, 101 kPa, x1 = 0.0002162	–	0.99 ± 0.06
293.15 K, 101 kPa, x1 = 0.0002702	–	0.992 ± 0.06
293.15 K, 101 kPa, x1 = 0.0003242	–	0.994 ± 0.06
293.15 K, 101 kPa, x1 = 0.0003783	–	0.996 ± 0.06
293.15 K, 101 kPa, x1 = 0.0004323	–	0.998 ± 0.06
293.15 K, 101 kPa, x1 = 0.0004863	–	1.001 ± 0.061
293.15 K, 101 kPa, x1 = 0.0005403	–	1.004 ± 0.061
298 K, 101 kPa, x1 = 0.0001567	0.079 ± 0.006	–
298 K, 101 kPa, x1 = 0.0001676	0.084 ± 0.007	–
298 K, 101 kPa, x1 = 0.000182	0.09 ± 0.007	–
298 K, 101 kPa, x1 = 0.0001874	0.093 ± 0.007	–
298 K, 101 kPa, x1 = 0.0001946	0.096 ± 0.008	–
298 K, 101 kPa, x1 = 0.0002054	0.099 ± 0.008	–
298 K, 101 kPa, x1 = 0.0002144	0.105 ± 0.008	–
298 K, 101 kPa, x1 = 0.0002252	0.111 ± 0.009	–
298 K, 101 kPa, x1 = 0.000236	0.115 ± 0.009	–
298.15 K, 100 kPa, x1 = 5.406e-05	–	0.853 ± 0.027
298.15 K, 100 kPa, x1 = 0.0001081	–	0.855 ± 0.026
298.15 K, 100 kPa, x1 = 0.0001622	–	0.855 ± 0.026
298.15 K, 100 kPa, x1 = 0.0002162	–	0.857 ± 0.026
298.15 K, 100 kPa, x1 = 0.0002702	–	0.86 ± 0.026
298.15 K, 100 kPa, x1 = 0.0003242	–	0.86 ± 0.026
298.15 K, 100 kPa, x1 = 0.0003783	–	0.861 ± 0.026
298.15 K, 100 kPa, x1 = 0.0004323	–	0.863 ± 0.026
298.15 K, 100 kPa, x1 = 0.0004863	–	0.864 ± 0.026
298.15 K, 100 kPa, x1 = 0.0005403	–	0.866 ± 0.027
298.15 K, 101 kPa, x1 = 4.307e-05	0.02398 ± 5e-05	–
298.15 K, 101 kPa, x1 = 5.406e-05	–	0.853 ± 0.052
298.15 K, 101 kPa, x1 = 5.568e-05	0.0306 ± 6e-05	–
298.15 K, 101 kPa, x1 = 6.865e-05	0.03743 ± 8e-05	–
298.15 K, 101 kPa, x1 = 8.144e-05	0.04413 ± 9e-05	–
298.15 K, 101 kPa, x1 = 9.46e-05	0.0508 ± 0.0001	–
298.15 K, 101 kPa, x1 = 0.0001068	0.05714 ± 0.00011	–
298.15 K, 101 kPa, x1 = 0.0001081	–	0.854 ± 0.052
298.15 K, 101 kPa, x1 = 0.0001198	0.06364 ± 0.00013	–
298.15 K, 101 kPa, x1 = 0.0001322	0.06995 ± 0.00014	–
298.15 K, 101 kPa, x1 = 0.0001456	0.07656 ± 0.00015	–
298.15 K, 101 kPa, x1 = 0.0001584	0.0829 ± 0.00017	–
298.15 K, 101 kPa, x1 = 0.0001622	–	0.856 ± 0.052
298.15 K, 101 kPa, x1 = 0.0001704	0.08876 ± 0.00018	–
298.15 K, 101 kPa, x1 = 0.0001857	0.09628 ± 0.00019	–
298.15 K, 101 kPa, x1 = 0.0002009	0.1036 ± 0.00021	–
298.15 K, 101 kPa, x1 = 0.0002126	0.1093 ± 0.00022	–
298.15 K, 101 kPa, x1 = 0.0002162	–	0.858 ± 0.052
298.15 K, 101 kPa, x1 = 0.0002243	0.1151 ± 0.00023	–
298.15 K, 101 kPa, x1 = 0.0002466	0.1259 ± 0.00025	–
298.15 K, 101 kPa, x1 = 0.0002495	0.1271 ± 0.00025	–
298.15 K, 101 kPa, x1 = 0.0002564	0.1305 ± 0.00026	–
298.15 K, 101 kPa, x1 = 0.0002702	–	0.859 ± 0.052
298.15 K, 101 kPa, x1 = 0.0002992	0.1437 ± 0.00029	–
298.15 K, 101 kPa, x1 = 0.000323	0.1474 ± 0.00029	–
298.15 K, 101 kPa, x1 = 0.0003242	–	0.861 ± 0.052
298.15 K, 101 kPa, x1 = 0.0003333	0.1488 ± 0.0003	–
298.15 K, 101 kPa, x1 = 0.0003783	–	0.862 ± 0.052
298.15 K, 101 kPa, x1 = 0.0004323	–	0.864 ± 0.052
298.15 K, 101 kPa, x1 = 0.0004863	–	0.861 ± 0.052
298.15 K, 101 kPa, x1 = 0.0005403	–	0.867 ± 0.052
303.15 K, 100 kPa, x1 = 5.406e-05	–	0.772 ± 0.026
303.15 K, 100 kPa, x1 = 0.0001081	–	0.773 ± 0.026
303.15 K, 100 kPa, x1 = 0.0001622	–	0.774 ± 0.026
303.15 K, 100 kPa, x1 = 0.0002162	–	0.775 ± 0.026
303.15 K, 100 kPa, x1 = 0.0002702	–	0.777 ± 0.026
303.15 K, 100 kPa, x1 = 0.0003242	–	0.78 ± 0.026
303.15 K, 100 kPa, x1 = 0.0003783	–	0.784 ± 0.026
303.15 K, 100 kPa, x1 = 0.0004323	–	0.786 ± 0.026
303.15 K, 100 kPa, x1 = 0.0004863	–	0.799 ± 0.026
303.15 K, 100 kPa, x1 = 0.0005403	–	0.803 ± 0.026
303.15 K, 101 kPa, x1 = 5.406e-05	–	0.772 ± 0.047
303.15 K, 101 kPa, x1 = 0.0001081	–	0.772 ± 0.047
303.15 K, 101 kPa, x1 = 0.0001622	–	0.774 ± 0.047
303.15 K, 101 kPa, x1 = 0.0002162	–	0.775 ± 0.047
303.15 K, 101 kPa, x1 = 0.0002702	–	0.778 ± 0.047
303.15 K, 101 kPa, x1 = 0.0003242	–	0.78 ± 0.047
303.15 K, 101 kPa, x1 = 0.0003783	–	0.785 ± 0.047
303.15 K, 101 kPa, x1 = 0.0004323	–	0.786 ± 0.048
303.15 K, 101 kPa, x1 = 0.0004863	–	0.799 ± 0.048
303.15 K, 101 kPa, x1 = 0.0005403	–	0.802 ± 0.048
308 K, 101 kPa, x1 = 0.0001513	0.078 ± 0.006	–
308 K, 101 kPa, x1 = 0.0001694	0.085 ± 0.007	–
308 K, 101 kPa, x1 = 0.0001892	0.094 ± 0.008	–
308 K, 101 kPa, x1 = 0.0002486	0.121 ± 0.01	–
308 K, 101 kPa, x1 = 0.0002774	0.135 ± 0.011	–
308 K, 101 kPa, x1 = 0.0003945	0.155 ± 0.012	–
308.15 K, 100 kPa, x1 = 5.406e-05	–	0.696 ± 0.026
308.15 K, 100 kPa, x1 = 0.0001081	–	0.697 ± 0.026
308.15 K, 100 kPa, x1 = 0.0001622	–	0.698 ± 0.026
308.15 K, 100 kPa, x1 = 0.0002162	–	0.699 ± 0.026
308.15 K, 100 kPa, x1 = 0.0002702	–	0.701 ± 0.026
308.15 K, 100 kPa, x1 = 0.0003242	–	0.705 ± 0.026
308.15 K, 100 kPa, x1 = 0.0003783	–	0.708 ± 0.026
308.15 K, 100 kPa, x1 = 0.0004323	–	0.711 ± 0.026
308.15 K, 100 kPa, x1 = 0.0004863	–	0.715 ± 0.026
308.15 K, 100 kPa, x1 = 0.0005403	–	0.716 ± 0.026
308.15 K, 101 kPa, x1 = 5.406e-05	–	0.696 ± 0.042
308.15 K, 101 kPa, x1 = 0.0001081	–	0.697 ± 0.042
308.15 K, 101 kPa, x1 = 0.0001622	–	0.698 ± 0.042
308.15 K, 101 kPa, x1 = 0.0002162	–	0.699 ± 0.042
308.15 K, 101 kPa, x1 = 0.0002702	–	0.701 ± 0.042
308.15 K, 101 kPa, x1 = 0.0003242	–	0.705 ± 0.043
308.15 K, 101 kPa, x1 = 0.0003783	–	0.709 ± 0.043
308.15 K, 101 kPa, x1 = 0.0004323	–	0.711 ± 0.043
308.15 K, 101 kPa, x1 = 0.0004863	–	0.714 ± 0.043
308.15 K, 101 kPa, x1 = 0.0005403	–	0.716 ± 0.043
313.15 K, 100 kPa, x1 = 5.406e-05	–	0.611 ± 0.026
313.15 K, 100 kPa, x1 = 0.0001081	–	0.612 ± 0.026
313.15 K, 100 kPa, x1 = 0.0001622	–	0.614 ± 0.026
313.15 K, 100 kPa, x1 = 0.0002162	–	0.617 ± 0.026
313.15 K, 100 kPa, x1 = 0.0002702	–	0.617 ± 0.026
313.15 K, 100 kPa, x1 = 0.0003242	–	0.62 ± 0.026
313.15 K, 100 kPa, x1 = 0.0003783	–	0.624 ± 0.026
313.15 K, 100 kPa, x1 = 0.0004323	–	0.626 ± 0.026
313.15 K, 100 kPa, x1 = 0.0004863	–	0.628 ± 0.026
313.15 K, 100 kPa, x1 = 0.0005403	–	0.63 ± 0.026
318 K, 101 kPa, x1 = 0.0001513	0.08 ± 0.006	–
318 K, 101 kPa, x1 = 0.0001748	0.09 ± 0.007	–
318 K, 101 kPa, x1 = 0.0001964	0.101 ± 0.008	–
318 K, 101 kPa, x1 = 0.0002252	0.113 ± 0.009	–
318 K, 101 kPa, x1 = 0.0002486	0.125 ± 0.01	–
318 K, 101 kPa, x1 = 0.000317	0.152 ± 0.012	–
318 K, 101 kPa, x1 = 0.0003369	0.157 ± 0.013	–
318 K, 101 kPa, x1 = 0.0003945	0.165 ± 0.013	–
318 K, 101 kPa, x1 = 0.0004305	0.169 ± 0.014	–
318.15 K, 100 kPa, x1 = 5.406e-05	–	0.582 ± 0.026
318.15 K, 100 kPa, x1 = 0.0001081	–	0.584 ± 0.026
318.15 K, 100 kPa, x1 = 0.0001622	–	0.585 ± 0.026
318.15 K, 100 kPa, x1 = 0.0002162	–	0.587 ± 0.026
318.15 K, 100 kPa, x1 = 0.0002702	–	0.588 ± 0.026
318.15 K, 100 kPa, x1 = 0.0003242	–	0.589 ± 0.026
318.15 K, 100 kPa, x1 = 0.0003783	–	0.59 ± 0.026
318.15 K, 100 kPa, x1 = 0.0004323	–	0.591 ± 0.026
318.15 K, 100 kPa, x1 = 0.0004863	–	0.592 ± 0.026
318.15 K, 100 kPa, x1 = 0.0005403	–	0.593 ± 0.026
